{"source": "patent US11337990B2", "about": "“Human milk oligosaccharides to promote growth of beneficial bacteria” (ABBOTT LABORATORIES, priority 2010, dated 2022)", "key": {"bifidobacteria strains": {"system": "bifidobacteria strains", "assay": "Bacterial growth assay (OD600), panel of 12 strains", "format": "cell-based, Bifidobacterium", "conditions": "1% carbohydrate in sMRS+cysteine", "method": "(§1) Coy Laboratory Products, Grass Lake, Mich.). Subsequently, the cultures are passed twice on a semi-synthetic MRS medium ([…] which is supplemented with 1% (w/v) filter-sterilized glucose as the sole carbohydrate source. […] For bifidobacteria strains, the same procedure is followed except all media are supplemented with 0.5 g/l L-cysteine/HCl. [table] After the 2nd pass in sMRS+glucose+cysteine, the cultures are washed once with 10 mL of sterile sMRS+cysteine (no carbohydrate), resuspended in 10 ml of sterile sMRS+cysteine (no carbohydrate) and then used as a 1% inoculum. The carbohydrates are sterilized with a 0.22 micron filter and used at a 1% final concentration. Cell growth is performed in 250 μL of sMRS+cysteine covered with 50 μL of mineral oil in a Bioscreen 100-well Honeycomb plate. […] The plate reader is operated in discontinuous mode, with absorbance readings performed in 30-minute intervals, and preceded by 30-second shaking intervals at maximum speed. Controls consist of inoculated medium lacking carbohydrate. […] All three plates include a positive control (glucose) and negative control (no carbohydrate). The OD600 data for each carbohydrate is corrected by subtracting the OD600 of the basal media (sMRS)+cysteine from the sample plate for each probiotic. Maximum OD is determined by inspection of the corrected growth data. OD is determined by subtracting the initial corrected OD (time point 0) from the maximum corrected OD. Samples are grown in biologically independent triplicates and the resulting growth kinetic data are expressed as the mean of these replicates. For the growth curve plots, OD600 vs. time is first plotted for the bacteria grown on medium lacking carbohydrate (sMRS). For all other carbohydrates, the OD600 data is corrected by subtracting the OD600 of sMRS."}, "HT-29 cells [1]": {"system": "HT-29 cells", "assay": "Alkaline phosphatase activity per milligram of protein (cell differentiation), HT-29", "format": "cell-based, human", "conditions": "Example 48: LNnT or 2′FL 20, 200, 2000 mg/L; 6′SL 40, 400; 72 hours", "method": "(§2) In a first experiment, HT-29 cells, which model the immature epithelial cells of the small intestine, are incubated in a humidified atmosphere of 5% carbon dioxide at 37° C. in the presence of LNnT or 2′FL at concentrations of 0 mg/L (“0”), 20 mg/L (“20”), 200 mg/L (“200”), and 2000 mg/L (“2000”) or in the presence of 6′SL at concentrations of 0 mg/mL (“0”), 40 mg/mL (“40”), 400 mg/mL (“400”), and 4000 mg/mL (“4000”) for 72 hours. The culture medium utilized is Dulbecco's Modified Eagle Medium (Life Technologies, Foster City Calif.) supplemented with 10% fetal calf serum and 2 mM glutamine. The controls (“energy”) consist of 91.5 mg lactose and 64.2 mg N-acetyllactosamine/L for LNnT; 133 mg lactose and 67 mg fucose/L for 2′FL; and 195 mg lactose and 205 mg/L sialic acid for 6′SL. The impact of the LNnT, 2′FL, and 6′SL at various levels and the controls on HT-29 cell proliferation is measured using a conventional BrdU assay, which measures the number of cells that have recently synthesized DNA. […] Additionally, the impact of LNnT, 2′FL, and 6′SL at various levels and the controls on the alkaline phosphatase activity per milligram of protein for HT-29 cells, which is an indicator of cell differentiation, is measured."}, "Caco-2 cells": {"system": "Caco-2 cells", "assay": "Alkaline phosphatase activity per milligram of protein (cell differentiation), Caco-2", "format": "cell-based, human", "conditions": "Example 48: LNnT or 2′FL 20, 200, 2000 mg/L; 6′SL 40, 400, 4000 mg/mL; 72 hours", "method": "In a second experiment, Caco-2 cells, which model more mature epithelial cells of the small intestine, are incubated in a humidified atmosphere of 5% carbon dioxide at 37° C. in the presence of LNnT or 2′FL at concentrations of 0 mg/L (“0”), 20 mg/L (“20”), 200 mg/L (“200”), and 2000 mg/L (“2000”) or in the presence of 6′SL at concentrations of 0 mg/mL (“0”), 40 mg/mL (“40”), 400 mg/mL (“400”), and 4000 mg/mL (“4000”) for 72 hours. The culture medium utilized is Dulbecco's Modified Eagle Medium (Life Technologies, Foster City Calif.) supplemented with 10% fetal calf serum and 2 mM glutamine. The controls (“energy”) consist of 91.5 mg lactose and 64.2 mg N-acetyllactosamine/L for LNnT; 133 mg lactose and 67 mg fucose/L for 2′FL; and 195 mg lactose and 205 mg sialic acid/L for 6′SL. The impact of the LNnT, 2′FL, and 6′SL at various levels and the control on Caco-2 cell proliferation is measured using a conventional BrdU assay, which measures the number of cells that have recently synthesized DNA. […] Additionally, the impact of LNnT, 2′FL, and 6′SL at various levels and the controls on the alkaline phosphatase activity per milligram of protein for Caco-2 cells, which is an indication of cell differentiation, is measured."}, "Bifidobacterium spp.": {"system": "Bifidobacterium spp.", "assay": "qPCR of bacterial populations in in vitro fecal fermentation", "format": "cell-based", "conditions": "overall, 0-12 h fermentation; sodium salt"}, "infant fecal bacteria": {"system": "infant fecal bacteria", "assay": "In vitro substrate fermentation model with infant feces (pH, SCFA, lactate)", "format": "cell-based, human infant"}, "HT-29 cells [2]": {"system": "HT-29 cells", "assay": "HT-29 cell proliferation, BrdU assay", "format": "cell-based, human", "conditions": "Example 48: LNnT or 2′FL 20, 200, 2000 mg/L; 6′SL 40, 400; 72 hours; sodium salt", "method": "In a first experiment, HT-29 cells, which model the immature epithelial cells of the small intestine, are incubated in a humidified atmosphere of 5% carbon dioxide at 37 C in the presence of LNnT at concentrations of 0 mg/L (“0”), 100 mg/L (“100”), 200 mg/L (“200”), and 400 mg/L (“400”) for either 48 hours or 72 hours. The culture medium utilized is Dulbecco's Modified Eagle Medium (Life Technologies, Foster City Calif.) supplemented with 10% fetal calf serum and 2 mM glutamine. The control consists of a combination of 91.5 mg lactose and 62.4 mg galactosamine (“LG”) per Liter of the Dulbecco's Modified Eagle Medium set forth above. The impact of the LNnT at various levels and the control on HT-29 cell proliferation is measured using a conventional BrdU assay, which measures the number of cells that have recently synthesized DNA.\nas §2"}, "B. infantis ATCC 15697": {"system": "B. infantis ATCC 15697", "assay": "Bacterial growth assay (OD600)", "format": "cell-based, Bifidobacterium infantis", "conditions": "1% carbohydrate in sMRS+cysteine", "method": "as §1"}, "B. infantis M-63": {"system": "B. infantis M-63", "assay": "Bacterial growth assay (OD600)", "format": "cell-based, Bifidobacterium infantis", "conditions": "1% carbohydrate in sMRS+cysteine", "method": "as §1"}, "B. breve ATCC 15700": {"system": "B. breve ATCC 15700", "assay": "Bacterial growth assay (OD600)", "format": "cell-based, Bifidobacterium breve", "conditions": "1% carbohydrate in sMRS+cysteine", "method": "Coy Laboratory Products, Grass Lake, Mich.). Subsequently, the cultures are passed twice on a semi-synthetic MRS medium ([…] which is supplemented with 1% (w/v) filter-sterilized glucose as the sole carbohydrate source. […] For bifidobacteria strains, the same procedure is followed except all media are supplemented with 0.5 g/l L-cysteine/HCl. […] After the 2nd pass in sMRS+glucose+cysteine, the cultures are washed once with 10 mL of sterile sMRS+cysteine (no carbohydrate), resuspended in 10 ml of sterile sMRS+cysteine (no carbohydrate) and then used as a 1% inoculum. The carbohydrates are sterilized with a 0.22 micron filter and used at a 1% final concentration. Cell growth is performed in 250 μL of sMRS+cysteine covered with 50 μL of mineral oil in a Bioscreen 100-well Honeycomb plate. […] The plate reader is operated in discontinuous mode, with absorbance readings performed in 30-minute intervals, and preceded by 30-second shaking intervals at maximum speed. Controls consist of inoculated medium lacking carbohydrate. […] Maximum OD is determined by inspection of the corrected growth data. OD is determined by subtracting the initial corrected OD (time point 0) from the maximum corrected OD. Samples are grown in biologically independent triplicates and the resulting growth kinetic data are expressed as the mean of these replicates. […]"}}, "note": "“Also recorded” adds a separate entry of the source.", "data": [{"smiles": "CC(=O)N[C@H]1C([C@H](O)[C@H](O)CO)O[C@@](OCC2O[C@@H](O[C@@H]3C(CO)OC(O)C(O)[C@H]3O)C(O)[C@@H](O)[C@H]2O)(C(=O)[O-])C[C@H]1O.[Na+]", "note": "(stereo in doubt) [6′SL, α-(2-6′)-N-Acetylneuraminyl-lactose sodium salt]", "values": [{"measurement": "growth / ability to ferment (OD600)", "setting": "bifidobacteria strains", "value": "only B. infantis ATCC 15697 and B. infantis M-63 are able to ferment"}, {"measurement": "alkaline phosphatase activity per milligram of protein (cell differentiation)", "setting": "HT-29 cells [1]", "value": "no apparent effect"}, {"measurement": "alkaline phosphatase activity per milligram of protein (cell differentiation)", "setting": "Caco-2 cells", "value": "no apparent effect"}, {"measurement": "bifidobacteria populations", "setting": "Bifidobacterium spp.", "value": "may also be bifidogenic; also recorded: tended to generally increase bifidobacteria levels"}, {"measurement": "fermentation rate", "setting": "infant fecal bacteria", "value": "about 1,809 μg/g of dry matter/hour"}, {"measurement": "acetate production", "setting": "infant fecal bacteria; 3 and 6 h", "value": "intermediate"}, {"measurement": "acetate production, formula fed versus breast fed infants", "setting": "infant fecal bacteria; 12 h", "value": "greater"}, {"measurement": "propionate production", "setting": "infant fecal bacteria; 12 h of fermentation", "value": "large increase"}, {"measurement": "total SCFA production", "setting": "infant fecal bacteria; 12 h of fermentation, sodium salt", "value": "greater (P<0.05); also recorded: substantial amounts of SCFA"}, {"measurement": "total SCFA production", "setting": "infant fecal bacteria; after 3 and 6 h of fermentation", "value": "lower (P<0.05) with 6′SL compared to GOS"}, {"measurement": "total SCFA production, formula fed versus breast fed infants", "setting": "infant fecal bacteria; after 6 and 12 h of fermentation", "value": "greater (P=0.01) fermentation by formula fed infants"}, {"measurement": "propionate production", "setting": "infant fecal bacteria; overall", "value": "greater (P<0.0001) propionate production than all other substrates"}, {"measurement": "fermentability by infant fecal bacteria", "setting": "infant fecal bacteria; overall, sodium salt", "value": "highly fermentable; also recorded: readily fermented"}, {"measurement": "lactate accumulation", "setting": "infant fecal bacteria; up to 12 h, sodium salt", "value": "no lactate accumulation; also recorded: little lactate had accumulated"}, {"measurement": "HT-29 cell proliferation", "setting": "HT-29 cells [2]", "value": "capable of reducing cell proliferation at higher doses; also recorded: inhibits intestinal cell proliferation in immature epithelial cells"}, {"measurement": "growth / ability to ferment (OD600)", "setting": "B. infantis ATCC 15697", "value": "able to ferment"}, {"measurement": "growth / ability to ferment (OD600)", "setting": "B. infantis M-63", "value": "able to ferment"}]}, {"smiles": "CC(=O)N[C@H]1[C@H]([C@H](O)[C@H](O)CO)O[C@@](O[C@H]2[C@@H](O)[C@@H](CO)O[C@@H](O[C@H]3[C@H](O)[C@@H](O)C(O)O[C@@H]3CO)[C@@H]2O)(C(=O)O)C[C@@H]1O", "note": "(stereo partly drawn) [3′SL, 3′-Sialyllactose]", "values": [{"measurement": "growth / ability to ferment (OD600)", "setting": "bifidobacteria strains", "value": "only B. infantis ATCC 15697 and B. infantis M-63 are able to ferment"}, {"measurement": "growth / ability to ferment (OD600)", "setting": "B. infantis ATCC 15697", "value": "able to ferment"}, {"measurement": "growth / ability to ferment (OD600)", "setting": "B. infantis M-63", "value": "able to ferment"}]}, {"smiles": "C[C@H](O)[C@@H](O)[C@@H](O)[C@H](O)C=O", "note": "[L-fucose, reference compound]", "values": [{"measurement": "growth / ability to ferment (OD600)", "setting": "bifidobacteria strains", "value": "None of the bifidobacteria are able to ferment"}, {"measurement": "growth / ability to ferment (OD600)", "setting": "B. infantis ATCC 15697", "value": "not able to ferment"}, {"measurement": "growth / ability to ferment (OD600)", "setting": "B. infantis M-63", "value": "not able to ferment"}]}, {"smiles": "CC(=O)N[C@@H]1[C@@H](O)[C@H](O)[C@@H](CO)O[C@H]1O", "note": "[NAG, reference compound]", "values": [{"measurement": "growth / ability to ferment (OD600)", "setting": "bifidobacteria strains", "value": "Only B. breve ATCC 15700 is able to ferment"}, {"measurement": "growth / ability to ferment (OD600)", "setting": "B. breve ATCC 15700", "value": "able to ferment"}]}, {"smiles": "O=C(CO)[C@@H](O)[C@H](O)[C@H](O)CO", "note": "[fructose]", "values": [{"measurement": "growth / ability to ferment (OD600)", "setting": "bifidobacteria strains", "value": "majority of bifidobacteria is able to ferment"}]}, {"smiles": "OC[C@H]1O[C@@H](O[C@H]2[C@H](O)[C@@H](O)C(O)O[C@@H]2CO)[C@H](O)[C@@H](O)[C@H]1O", "note": "(stereo partly drawn) [lactose]", "values": [{"measurement": "growth / ability to ferment (OD600)", "setting": "bifidobacteria strains", "value": "the bifidobacteria, which is not able to ferment galactose, also has reduced growth on lactose"}]}]}
